Reference: US8822449B2, “Substituted aminoindanes and analogs thereof, and the pharmaceutical use thereof” (Sanofi, priority 2008, dated 2014)
Read-outs that look alike come from different tables or passages of the source.

Biological target: T1, sodium-proton exchanger of subtype 3 (NHE3) (Homo sapiens, UniProt P48764)
T1 construct: expressed in transfected cells
T1 sequence (P48764 26-834): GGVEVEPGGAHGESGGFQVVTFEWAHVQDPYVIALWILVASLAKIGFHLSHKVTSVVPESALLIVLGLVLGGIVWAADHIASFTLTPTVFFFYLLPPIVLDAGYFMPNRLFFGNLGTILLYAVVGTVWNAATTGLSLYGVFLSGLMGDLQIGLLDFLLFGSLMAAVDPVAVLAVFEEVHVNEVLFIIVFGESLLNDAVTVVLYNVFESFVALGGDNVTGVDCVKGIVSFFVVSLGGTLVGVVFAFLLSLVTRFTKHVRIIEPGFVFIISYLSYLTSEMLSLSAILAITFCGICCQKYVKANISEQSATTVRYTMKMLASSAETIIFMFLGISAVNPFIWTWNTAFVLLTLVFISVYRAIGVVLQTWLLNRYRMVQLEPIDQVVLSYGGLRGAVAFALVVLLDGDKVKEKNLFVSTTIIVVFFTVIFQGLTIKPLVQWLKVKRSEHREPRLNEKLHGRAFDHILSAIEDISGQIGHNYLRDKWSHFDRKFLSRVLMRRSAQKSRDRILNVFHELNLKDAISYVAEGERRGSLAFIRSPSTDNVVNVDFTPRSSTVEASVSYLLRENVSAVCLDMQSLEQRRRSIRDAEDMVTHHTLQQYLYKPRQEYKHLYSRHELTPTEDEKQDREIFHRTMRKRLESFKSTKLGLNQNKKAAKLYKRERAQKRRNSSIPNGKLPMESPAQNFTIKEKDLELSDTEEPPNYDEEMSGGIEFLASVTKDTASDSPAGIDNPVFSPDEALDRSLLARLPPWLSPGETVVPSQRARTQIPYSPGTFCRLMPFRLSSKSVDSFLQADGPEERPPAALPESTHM
Experiment: Recovery of intracellular pH (pHi) after acidification in LAP1 cells stably expressing NHE3 (BCECF fluorescence, FLIPR)
Type: cell-based

[1] = LAP1 cells stably expressing NHE3, pH recovery after acidification, range 1 is % inhibition at 10 μM, read-out: Activity range (inhibitory effect on NHE3)

Row | Structure (SMILES) | IC50 [1] [nM] | inhibition at 10 µM [1] [%] | further results
1 | c1ccc2c(c1)C[C@@H](N1C[C@H]3CNC[C@H]3C1)[C@@H]2Oc1ccc(-n2ccnc2)cc1 (racemic) [Example 7, 2-[rac-trans-(1,2)-1-(4-imidazol-1-ylphenoxy)indan-2-yl]octahydropyrrolo[3,4-c]pyrrole] | 1000 to 10000 | – | –
2 | COc1cc(Cl)cc(O[C@@H]2c3ccccc3C[C@H]2N2CCC(CN)C2)c1 (mixture of isomers) [Example 613, C-{1-[rac-trans-(1,2)-1-(3-chloro-5-methoxyphenoxy)indan-2-yl]pyrrolidin-3-yl}methylamine] | 1000 to 10000 | – | –
3 | c1ccc2c(c1)C[C@H](N1CCCC1)[C@H]2Oc1cccc2cccnc12 (racemic) [Example 595, 8-(rac-trans-(1,2)-2-pyrrolidin-1-ylindan-1-yloxy)quinoline] | 1000 to 10000 | – | –
4 | NCC1CCN([C@@H]2Cc3ccccc3[C@H]2Oc2ccc(N3CCNCC3)cc2)CC1 (racemic) [Example 619, C-{1-[rac-trans-(1,2)-1-(4-piperazin-1-ylphenoxy)indan-2-yl]piperidin-4-yl}methylamine] | 1000 to 10000 | – | –
5 | Cc1nnc(C)n1-c1ccc(O[C@H]2c3cc(Cl)ccc3C[C@@H]2N2CC[C@H](F)C2)c(Cl)c1 [Example 559, 4-{3-chloro-4-[trans-(1S,2S)-6-chloro-2-((S)-3-fluoropyrrolidin-1-yl)indan-1-yloxy]phenyl}-3,5-dimethyl-4H-[1,2,4]triazole] | < 1000 | – | –
6 | N[C@H]1CCCN([C@H]2CCc3ccccc3[C@@H]2Oc2ccc(F)cc2-c2cc[nH]n2)C1 (racemic) [Example 205, (S)-1-{rac-trans-(1,2)-1-[4-fluoro-2-(1H-pyrazol-3-yl)phenoxy]-1,2,3,4-tetrahydronaphthalen-2-yl}piperidin-3-ylamine] | – | 20 to 50 | –
7 | NS(=O)(=O)c1cc(Cl)c(O[C@H]2c3ccccc3C[C@@H]2N2CCCC2)c(Cl)c1 (racemic) [Example 402, 3,5-dichloro-4-(rac-trans-(1,2)-2-pyrrolidin-1-ylindan-1-yloxy)benzenesulfonamide] | 1000 to 10000 | – | –
8 | CN1CCN(C(=O)c2ccc(O[C@H]3c4ccccc4C[C@@H]3N3CCCC3)cc2)CC1 (racemic) [Example 22, (4-methylpiperazin-1-yl)-[4-(rac-trans-(1,2)-2-pyrrolidin-1-ylindan-1-yloxy)phenyl]methanone] | 1000 to 10000 | – | –
9 | CC(=O)Nc1ccccc1OC1c2ccccc2CC1N1CCCC1 (racemic) [Example 635, N-[2-(rac-trans-(1,2)-2-pyrrolidin-1-ylindan-1-yloxy)phenyl]acetamide] | – | – | inhibition at 10 µM (LAP1, read-out: Activity range (inhibitory effect on NHE3)): 20 to 50%
10 | N#Cc1ccc(O[C@@H]2c3ccccc3C[C@H]2N2CCC(CN)C2)cc1Cl (mixture of isomers) [Example 540, 4-[rac-trans-(1,2)-2-(3-aminomethylpyrrolidin-1-yl)indan-1-yloxy]-2-chlorobenzonitrile] | 1000 to 10000 | – | –
11 | Fc1ccc(O[C@H]2c3ccccc3C[C@@H]2N2CCCC2)c(-c2ccn[nH]2)c1 [Example 575, 5-[5-fluoro-2-(trans-(1S,2S)-2-pyrrolidin-1-ylindan-1-yloxy)phenyl]-1H-pyrazole] | – | 20 to 50 | –
12 | N[C@@H]1CCCN([C@H]2Cc3c(Cl)cc(Cl)cc3[C@@H]2Oc2ccc(-n3ccnc3)cc2)C1 [Example 98, (R)-1-[trans-(1S,2S)-4,6-dichloro-1-(4-imidazol-1-ylphenoxy)indan-2-yl]piperidin-3-ylamine] | < 1000 | – | –
13 | CS(=O)(=O)c1ccc(O[C@@H]2c3ccccc3C[C@H]2NC2CCCCCC2)cc1 (racemic) [Example 711, Cycloheptyl-[rac-trans-(1,2)-1-(4-methanesulfonyl-phenoxy)-indan-2-yl]-amine] | – | 20 to 50 | –
14 | CS(=O)(=O)c1ccc(N[C@H]2c3ccccc3C[C@@H]2N2CCCC2)cc1 [Example 707, (4-Methanesulfonyl-phenyl)-((1S,2S)-2-pyrrolidin-1-yl-indan-1-yl)-amine] | 1000 to 10000 | – | –
15 | CS(=O)(=O)c1ccc(OC2c3ccccc3CC2N2CCC[C@@H](N)C2)c(Cl)c1 (mixture of isomers) [Example 37, (R)-1-[rac-trans-(1,2)-1-(2-chloro-4-methanesulfonylphenoxy)indan-2-yl]piperidin-3-ylamine] | < 1000 | – | –
16 | CN(C)C[C@H]1Cc2c(Cl)cc(Cl)cc2[C@@H]1Oc1ccc(S(C)(=O)=O)cc1 (racemic) [Example 217, [rac-trans-(1,2)-4,6-dichloro-1-(4-methanesulfonylphenoxy)indan-2-ylmethyl]dimethylamine] | – | 20 to 50 | –
17 | CN1CCN(c2cccc(O[C@H]3c4cc(Cl)cc(Cl)c4C[C@@H]3N3CC[C@@H](O)C3)c2)C1=O [Example 319, 1-{3-[trans-(1S,2S)-4,6-dichloro-2-((R)-3-hydroxypyrrolidin-1-yl)indan-1-yloxy]phenyl}-3-methylimidazolidin-2-one] | 1000 to 10000 | – | –
18 | Cn1ccn(-c2cc(O[C@H]3c4cc(Cl)cc(Cl)c4C[C@@H]3N3CC[C@@H](O)C3)ccc2Cl)c1=O [Example 310, 1-{2-chloro-5-[(1S,2S)-4,6-dichloro-2-((R)-3-hydroxypyrrolidin-1-yl)indan-1-yloxy]phenyl}-3-methyl-1,3-dihydroimidazol-2-one] | – | 20 to 50 | –
19 | C[C@@H]1CN([C@H]2Cc3c(Cl)cc(Cl)cc3[C@@H]2Oc2ccc(S(C)(=O)=O)cc2)CCN1 [Example 101, (R)-1-[trans-(1S,2S)-4,6-dichloro-1-(4-methanesulfonylphenoxy)indan-2-yl]-3-methylpiperazine] | < 1000 | – | –
20 | CC(C)c1nccn1-c1ccc(O[C@H]2c3cc(Cl)cc(Cl)c3C[C@@H]2N2CC[C@@H](O)C2)cc1 [Example 732, (R)-1-{trans-(1S,2S)-4,6-Dichloro-1-[4-(2-isopropyl-imidazol-1-yl)-phenoxy]-indan-2-yl}-pyrrolidin-3-ol] | 1000 to 10000 | – | –
21 | Cn1ccn(-c2ccc(O[C@H]3c4cc(Cl)cc(Cl)c4C[C@@H]3N3CC[C@@H](O)C3)cc2)c1=O [Example 331, 1-{4-[trans-(1S,2S)-4,6-dichloro-2-((R)-3-hydroxypyrrolidin-1-yl)indan-1-yloxy]phenyl}-3-methyl-1,3-dihydroimidazol-2-one] | < 1000 | – | –
22 | COc1ccc(C)cc1O[C@@H]1c2ccccc2C[C@H]1N1CCC(CN)CC1 (racemic) [Example 606, C-{1-[rac-trans-(1,2)-1-(2-methoxy-5-methylphenoxy)indan-2-yl]piperidin-4-yl}methylamine] | 1000 to 10000 | – | –
23 | Cc1c(Cl)cccc1O[C@H]1c2ccccc2CC[C@@H]1N1CCC[C@H](N)C1 (racemic) [Example 160, (S)-1-[rac-trans-(1,2)-1-(3-chloro-2-methylphenoxy)-1,2,3,4-tetrahydronaphthalen-2-yl]piperidin-3-ylamine] | – | 20 to 50 | –
24 | CC1(C)NC(=O)N(c2ccc(F)c(O[C@H]3c4cc(Cl)cc(F)c4C[C@@H]3N3CC[C@@H](O)C3)c2)C1=O [Example 420, 3-{3-[(1S,2S)-6-chloro-4-fluoro-2-((R)-3-hydroxypyrrolidin-1-yl)indan-1-yloxy]-4-fluorophenyl}-5,5-dimethylimidazolidine-2,4-dione] | 1000 to 10000 | – | –
25 | N[C@H]1CCCN([C@H]2CCc3ccccc3[C@@H]2Oc2ccc(N3C(=O)CCC3=O)cc2)C1 (racemic) [Example 328, 1-{4-[rac-trans-(1,2)-2-((S)-3-aminopiperidin-1-yl)-1,2,3,4-tetrahydronaphthalen-1-yloxy]phenyl}pyrrolidine-2,5-dione] | – | 20 to 50 | –
26 | CC(=O)Nc1cccc(O[C@H]2c3ccc(F)cc3C[C@@H]2N2CCCC2)c1 (racemic) [Example 656, N-[3-(rac-trans-(1,2)-5-fluoro-2-pyrrolidin-1-ylindan-1-yloxy)phenyl]acetamide] | 1000 to 10000 | – | –
27 | N[C@@H]1CCCN([C@H]2CCc3ccccc3[C@@H]2Oc2cccc3[nH]nnc23)C1 (racemic) [Example 29, (R)-1-[rac-trans-(1,2)-1-(1H-benzotriazol-4-yloxy)-1,2,3,4-tetrahydronaphthalen-2-yl]piperidin-3-ylamine] | 1000 to 10000 | – | –
28 | Cc1cc(O[C@H]2c3cc(Cl)cc(F)c3C[C@@H]2N2CCNCC2)ccc1S(=O)(=O)C(F)(F)F (racemic) [Example 290, 1-[rac-trans-(1,2)-6-chloro-4-fluoro-1-(3-methyl-4-trifluoromethanesulfonylphenoxy)indan-2-yl]piperazine] | – | 20 to 50 | –
29 | Cc1nc(C)c(-c2ccc(O[C@H]3c4cc(Cl)cc(Cl)c4C[C@@H]3N3CC[C@@H](O)C3)cc2)s1 [Example 125, (R)-1-{trans-(1S,2S)-4,6-dichloro-1-[4-(2,4-dimethyl-thiazol-5-yl)phenoxy]indan-2-yl}pyrrolidin-3-ol] | – | 20 to 50 | –
30 | CCc1nc(C)cn1-c1ccc(F)c(O[C@H]2c3cc(Cl)cc(Cl)c3C[C@@H]2N2CC[C@@H](O)C2)c1 [Example 725, (R)-1-{trans-(1S,2S)-4,6-Dichloro-1-[5-(2-ethyl-4-methyl-imidazol-1-yl)-2-fluoro-phenoxy]-indan-2-yl}-pyrrolidin-3-ol] | 1000 to 10000 | – | –
